Laboratory results from patent EP4592286A1, “MACROCYCLIC NITROGEN-CONTAINING CROWN ETHER COMPOUND AND USE THEREOF AS PROTEIN KINASE INHIBITOR” (Artivila Biopharma, priority 2022, dated 2024).

Assays:
Assay type in all cases: biochemical
[1] = target: JAK2 (Homo sapiens, UniProt O60674); assay: experiment of inhibiting kinase activity (Caliper mobility shift assay), JAK2; conditions: read-out: inhibition rate JAK2; for inhibition at 0.1 µM: at 100 nM; for inhibition at 0.01 µM: at 10 nM
Procedure: (§1) The inhibition rates of tested compounds on JAK1, JAK2, JAK3, TYK2, CDK7, CDK9, EGFR (T790M) and LRRK2 kinases were measured. The test concentrations of the compounds were 10 nM and 100 nM, and the detection was performed by replicate wells. Alternatively, compounds were 3-fold serial diluted from 10 µM for 10 concentrations in replicate wells.
(§2) The inhibitory effects of the compounds on JAK1, JAK2, JAK3, CDK7 and CDK9 kinases were detected by the method of Caliper mobility shift assay. 250 nL of the compound at 100-fold final concentration was transferred to a destination plate 384-well-plate by using a liquid handler Echo 550. A kinase solution at 2.5-fold final concentration was prepared with 1×kinase buffer. 10 µL of the kinase solution with 2.5-fold final concentration was added to compound wells and positive control wells; and 10 µL of 1×kinase buffer was added to negative control wells. The mixture was centrifuged at 1000 rpm for 30 seconds and then incubated at room temperature for 10 minutes. A mixed solution of ATP and kinase substrate at 5/3-fold final concentration was prepared with 1×kinase buffer, and 15 µL of the mixed solution of ATP and substrate at 5/3-fold final concentration was added to start the reaction. The 384-well plate was centrifuged at 1000 rpm for 30 seconds, shaked and mixed evenly, then incubated at room temperature for a corresponding time. 30 µL of stop solution was added to stop the kinase reaction, the mixture was centrifuged at 1000 rpm for 30 seconds, and shaked and mixed evenly. The conversion rate was read by Caliper EZ Reader. The conversion inhibition rate%=(average positive control conversion rate%-sample conversion rate%)/(average positive control conversion rate%-average negative control conversion rate%). Where negative control wells represent the conversion readings of the background well of kinase buffer; and positive control wells represent the conversion readings of wells without compound inhibition. With the log value of concentration as the x axis and the percentage inhibition rate as the y axis, the dose-response curve was fitted by the log (inhibitor) vs. response-variable slope of the analyzing softwar GraphPad Prism 5, and the IC50 values of each compound on enzyme activity were obtained. Calculation formula is as follows: y=Bottom+(Top-Bottom)/(1+10^((LogIC50-x)×hillslope)), where x is logarithm of inhibitor concentration; and Y is % inhibition rate.

[2] = target: CDK7 (Homo sapiens, UniProt P50613); assay: experiment of inhibiting kinase activity (Caliper mobility shift assay), CDK7; conditions: for inhibition at 0.1 µM: at 100 nM; for inhibition at 0.1 µM / inhibition at 0.01 µM: read-out: inhibition rate CDK7; for inhibition at 0.01 µM: at 10 nM
Sequence of CDK7 (P50613 whole entry, species assumed): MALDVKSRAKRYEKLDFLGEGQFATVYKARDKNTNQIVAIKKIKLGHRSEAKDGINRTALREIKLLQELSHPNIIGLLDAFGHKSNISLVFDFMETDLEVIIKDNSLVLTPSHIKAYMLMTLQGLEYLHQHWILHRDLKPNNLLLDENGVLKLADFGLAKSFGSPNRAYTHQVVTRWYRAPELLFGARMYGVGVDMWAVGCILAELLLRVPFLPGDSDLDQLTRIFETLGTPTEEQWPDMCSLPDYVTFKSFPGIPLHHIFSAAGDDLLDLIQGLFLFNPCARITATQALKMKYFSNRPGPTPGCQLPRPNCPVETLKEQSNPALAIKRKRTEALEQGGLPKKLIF
Sequence of CDK7 (P51946 whole entry partner, species assumed): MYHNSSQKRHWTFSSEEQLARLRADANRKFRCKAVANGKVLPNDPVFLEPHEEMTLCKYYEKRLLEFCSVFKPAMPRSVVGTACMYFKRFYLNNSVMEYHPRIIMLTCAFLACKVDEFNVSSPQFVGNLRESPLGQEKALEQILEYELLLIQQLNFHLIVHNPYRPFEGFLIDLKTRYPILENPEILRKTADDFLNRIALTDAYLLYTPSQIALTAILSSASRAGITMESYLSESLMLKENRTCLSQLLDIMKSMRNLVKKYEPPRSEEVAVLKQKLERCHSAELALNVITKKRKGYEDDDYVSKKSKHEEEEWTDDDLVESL
Sequence of CDK7 (P51948 whole entry partner, species assumed): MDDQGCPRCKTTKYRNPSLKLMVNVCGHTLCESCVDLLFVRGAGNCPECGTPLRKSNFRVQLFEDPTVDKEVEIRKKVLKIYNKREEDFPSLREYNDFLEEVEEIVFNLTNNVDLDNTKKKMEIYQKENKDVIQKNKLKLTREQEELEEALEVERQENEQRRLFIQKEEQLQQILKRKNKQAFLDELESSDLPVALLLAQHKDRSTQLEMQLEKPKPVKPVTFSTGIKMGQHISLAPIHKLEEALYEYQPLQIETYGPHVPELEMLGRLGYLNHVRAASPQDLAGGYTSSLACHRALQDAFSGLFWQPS
Procedure: as §1, §2

[3] = target: LRRK2 (Homo sapiens, UniProt Q5S007); assay: experiment of inhibiting kinase activity, LRRK2; conditions: for inhibition at 0.1 µM: at 100 nM; for inhibition at 0.1 µM / inhibition at 0.01 µM: read-out: inhibition rate LRRK2; for inhibition at 0.01 µM: at 10 nM; for IC50: kinase activity assay, Table 3
Procedure: as §1

[4] = target: T1, JAK3 (Homo sapiens, UniProt P52333); assay: experiment of inhibiting kinase activity (Caliper mobility shift assay), JAK3; conditions: for inhibition at 0.1 µM: at 100 nM; for inhibition at 0.1 µM / inhibition at 0.01 µM: read-out: inhibition rate JAK3; for inhibition at 0.01 µM: at 10 nM
T1 sequence (P52333 1-1124): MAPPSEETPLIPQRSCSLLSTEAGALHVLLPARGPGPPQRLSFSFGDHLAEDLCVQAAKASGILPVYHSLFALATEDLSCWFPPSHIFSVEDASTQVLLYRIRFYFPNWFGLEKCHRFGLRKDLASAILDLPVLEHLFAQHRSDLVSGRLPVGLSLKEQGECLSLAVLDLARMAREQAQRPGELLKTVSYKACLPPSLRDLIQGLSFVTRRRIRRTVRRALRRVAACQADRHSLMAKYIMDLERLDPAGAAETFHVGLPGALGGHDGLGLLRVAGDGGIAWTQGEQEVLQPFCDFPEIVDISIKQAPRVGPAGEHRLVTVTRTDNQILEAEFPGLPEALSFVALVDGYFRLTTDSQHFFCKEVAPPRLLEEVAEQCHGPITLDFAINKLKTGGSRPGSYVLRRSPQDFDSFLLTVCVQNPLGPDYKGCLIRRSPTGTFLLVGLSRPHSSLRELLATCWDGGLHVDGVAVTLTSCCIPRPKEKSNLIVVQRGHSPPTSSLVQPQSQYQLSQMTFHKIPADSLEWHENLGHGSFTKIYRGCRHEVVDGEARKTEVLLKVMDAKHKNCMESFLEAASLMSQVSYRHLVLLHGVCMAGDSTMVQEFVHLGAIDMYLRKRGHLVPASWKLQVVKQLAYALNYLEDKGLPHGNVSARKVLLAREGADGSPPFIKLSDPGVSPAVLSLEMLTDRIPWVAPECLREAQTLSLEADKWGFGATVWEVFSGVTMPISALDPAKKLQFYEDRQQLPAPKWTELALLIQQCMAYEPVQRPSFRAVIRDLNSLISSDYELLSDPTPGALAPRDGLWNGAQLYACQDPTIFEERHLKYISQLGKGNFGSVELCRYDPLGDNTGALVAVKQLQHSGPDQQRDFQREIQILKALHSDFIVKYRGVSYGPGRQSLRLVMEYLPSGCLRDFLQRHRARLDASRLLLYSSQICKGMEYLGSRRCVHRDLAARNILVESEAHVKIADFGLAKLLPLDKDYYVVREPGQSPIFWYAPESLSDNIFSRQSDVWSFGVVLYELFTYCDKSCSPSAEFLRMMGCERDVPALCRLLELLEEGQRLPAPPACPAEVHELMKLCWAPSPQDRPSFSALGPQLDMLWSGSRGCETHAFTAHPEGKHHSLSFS
Procedure: as §1, §2

[5] = target: TYK2 (Homo sapiens, UniProt P29597); assay: experiment of inhibiting kinase activity, TYK2; conditions: read-out: inhibition rate TYK2; for inhibition at 0.1 µM: at 100 nM; for inhibition at 0.01 µM: at 10 nM
Sequence of TYK2 (P29597 whole entry): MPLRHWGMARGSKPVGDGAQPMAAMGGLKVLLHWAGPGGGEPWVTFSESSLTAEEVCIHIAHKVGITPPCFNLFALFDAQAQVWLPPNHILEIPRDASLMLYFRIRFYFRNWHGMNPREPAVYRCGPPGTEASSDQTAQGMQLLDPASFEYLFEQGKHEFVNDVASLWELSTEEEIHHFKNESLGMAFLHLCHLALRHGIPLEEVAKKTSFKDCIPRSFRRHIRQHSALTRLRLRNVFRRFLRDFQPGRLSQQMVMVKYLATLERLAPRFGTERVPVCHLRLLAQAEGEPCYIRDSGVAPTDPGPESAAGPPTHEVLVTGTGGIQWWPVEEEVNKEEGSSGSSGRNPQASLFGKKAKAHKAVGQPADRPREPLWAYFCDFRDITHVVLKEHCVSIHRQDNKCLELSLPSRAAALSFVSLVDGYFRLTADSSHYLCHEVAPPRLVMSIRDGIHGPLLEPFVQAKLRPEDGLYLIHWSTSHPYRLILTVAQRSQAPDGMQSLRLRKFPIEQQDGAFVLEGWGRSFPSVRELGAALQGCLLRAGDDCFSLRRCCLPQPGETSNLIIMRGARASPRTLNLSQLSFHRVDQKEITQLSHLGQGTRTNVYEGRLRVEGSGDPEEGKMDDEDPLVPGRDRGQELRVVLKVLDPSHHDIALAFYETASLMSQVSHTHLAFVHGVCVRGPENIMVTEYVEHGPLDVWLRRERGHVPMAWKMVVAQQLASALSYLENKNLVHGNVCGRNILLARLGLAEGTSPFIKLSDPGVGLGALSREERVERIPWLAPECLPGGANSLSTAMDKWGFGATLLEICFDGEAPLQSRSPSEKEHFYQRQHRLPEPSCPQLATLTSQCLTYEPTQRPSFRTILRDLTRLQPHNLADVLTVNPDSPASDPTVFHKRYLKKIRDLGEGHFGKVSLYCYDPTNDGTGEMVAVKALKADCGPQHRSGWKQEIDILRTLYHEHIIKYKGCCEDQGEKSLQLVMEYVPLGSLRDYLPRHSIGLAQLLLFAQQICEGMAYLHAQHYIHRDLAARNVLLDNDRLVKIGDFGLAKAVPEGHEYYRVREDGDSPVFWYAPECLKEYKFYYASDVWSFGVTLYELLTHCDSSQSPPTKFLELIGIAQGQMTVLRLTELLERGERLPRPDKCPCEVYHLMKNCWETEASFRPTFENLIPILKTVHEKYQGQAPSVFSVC
Procedure: as §1

Sequence of JAK2 (O60674 whole entry): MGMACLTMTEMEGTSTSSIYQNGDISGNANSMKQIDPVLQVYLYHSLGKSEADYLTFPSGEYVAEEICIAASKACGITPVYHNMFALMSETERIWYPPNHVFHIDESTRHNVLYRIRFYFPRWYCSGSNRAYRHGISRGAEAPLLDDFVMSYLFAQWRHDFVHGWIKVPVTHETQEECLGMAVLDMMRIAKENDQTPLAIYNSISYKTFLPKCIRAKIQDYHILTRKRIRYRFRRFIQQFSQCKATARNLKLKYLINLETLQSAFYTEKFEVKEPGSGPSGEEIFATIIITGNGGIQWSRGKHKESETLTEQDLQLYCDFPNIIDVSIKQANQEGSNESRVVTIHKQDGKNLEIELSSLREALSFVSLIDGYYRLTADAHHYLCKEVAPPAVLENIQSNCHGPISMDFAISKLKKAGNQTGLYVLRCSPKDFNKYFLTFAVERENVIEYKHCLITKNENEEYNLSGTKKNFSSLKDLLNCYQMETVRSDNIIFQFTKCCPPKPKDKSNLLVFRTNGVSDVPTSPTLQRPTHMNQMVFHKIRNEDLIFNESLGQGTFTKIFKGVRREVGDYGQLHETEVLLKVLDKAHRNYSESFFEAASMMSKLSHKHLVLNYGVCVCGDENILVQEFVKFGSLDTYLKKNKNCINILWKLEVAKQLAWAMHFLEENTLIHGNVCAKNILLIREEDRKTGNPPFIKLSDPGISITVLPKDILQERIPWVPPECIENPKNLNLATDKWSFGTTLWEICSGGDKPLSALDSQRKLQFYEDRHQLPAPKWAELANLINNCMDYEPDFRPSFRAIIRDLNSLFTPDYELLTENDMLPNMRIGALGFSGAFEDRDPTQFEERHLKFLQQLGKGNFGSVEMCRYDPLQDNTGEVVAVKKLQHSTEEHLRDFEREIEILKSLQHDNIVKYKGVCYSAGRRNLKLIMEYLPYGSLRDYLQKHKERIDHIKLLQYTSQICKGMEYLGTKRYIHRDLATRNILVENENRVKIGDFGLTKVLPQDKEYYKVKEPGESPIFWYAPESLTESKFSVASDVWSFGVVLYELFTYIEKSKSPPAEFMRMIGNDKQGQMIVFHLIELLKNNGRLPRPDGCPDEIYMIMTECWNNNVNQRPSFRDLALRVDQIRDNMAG

Row | inhibition at 0.1 µM [1] [%] | inhibition at 0.1 µM [2] [%] | inhibition at 0.1 µM [3] [%] | inhibition at 0.01 µM [2] [%] | IC50 ([2]; kinase activity assay, Table 3) [nM] | inhibition at 0.1 µM [4] [%] | inhibition at 0.01 µM [3] [%] | IC50 [3] [nM] | inhibition at 0.1 µM [5] [%] | inhibition at 0.01 µM [5] [%] | inhibition at 0.01 µM [1] [%] | inhibition at 0.01 µM [4] [%] | IC50 ([4]; kinase activity assay, Table 3) [nM] | SMILES
1 |  |  |  | 25 to 39 |  |  |  |  |  | > 80 | > 80 |  |  | CN1CCOCCOc2ccc(Nc3ncc(F)c(-c4cnn(C(CC#N)C5CCCC5)c4)n3)cc2OCC1 (centres unmarked) [Example 42, 3-cyclopentyl-3-(4-(5-fluoro-2-((7-methyl-2,3,6,7,8,9-hexahydro-5H-benzo[b][1,4,7]trioxa[10]azacyclododecan-12-yl)amino)pyrimidin-4-yl)-1H-pyrazol-1-yl)propanenitrile]
2 | 40 to 79 | 40 to 79 | > 80 |  |  | 25 to 39 |  |  |  |  |  |  |  | CN1CCOCCOc2cc(Nc3nc(Nc4cccc(S(N)(=O)=O)c4)c4cc[nH]c4n3)ccc2OCC1 [Example 67, 3-((2-((7-methyl-2,3,6,7,8,9-hexahydro-5H-benzo[b][1,4,7]trioxa[10]azacyclododecan-13-yl)amino)-7H-pyrrolo[2,3-d]pyrimidin-4-yl)amino)benzenesulfonamide]
3 |  |  |  | 25 to 39 |  |  | > 80 | < 50 |  |  | 40 to 79 | 40 to 79 |  | CC(=O)N1CCOCCOc2cc(Nc3nc(Nc4ccccc4S(=O)(=O)C(C)C)c4cc[nH]c4n3)ccc2OCC1 [Example 98, 1-(13-((4-((2-(isopropylsulfonyl)phenyl)amino)-7H-pyrrolo[2,3-d]pyrimidin-2-yl)amino)-2,3,5,6,8,9-hexahydro-7H-benzo[b][1,4,7]trioxa[10]azacyclododecan-7-yl)ethan-1-one]
4 | 40 to 79 | 25 to 39 | 40 to 79 |  |  |  |  | < 50 |  |  |  |  |  | CN1CCOc2ccc(Nc3nc(-c4cn(C)c5ccccc45)c4cc[nH]c4n3)cc2OCC1 [Example 39, 4-methyl-N-(4-(1-methyl-1H-indol-3-yl)-7H-pyrrolo[2,3-d]pyrimidin-2-yl)-3,4,5,6-tetrahydro-2H-benzo[b][1,4,7]dioxazolin-9-amine]
5 |  |  |  | > 80 |  |  | > 80 |  |  |  | 40 to 79 | 40 to 79 |  | CC(C)S(=O)(=O)c1ccccc1Nc1nc(Nc2ccc3c(c2)OCCN(C)CCOCCO3)nc2[nH]ccc12 [Example 53, N^4-(2-(isopropylsulfonyl)phenyl)-N^2-(7-methyl-2,3,6,7,8,9-hexahydro-5H-benzo[b][1,4,7]trioxa[10]azacyclododecan-12-yl)-7H-pyrrolo[2,3-d]pyrimidin-2,4-diamine]

Further lines, the compound ahead of its results:

Row | SMILES | inhibition at 0.1 µM [1] [%] | inhibition at 0.1 µM [2] [%] | inhibition at 0.1 µM [3] [%] | inhibition at 0.01 µM [2] [%] | IC50 ([2]; kinase activity assay, Table 3) [nM] | inhibition at 0.1 µM [4] [%] | inhibition at 0.01 µM [3] [%] | IC50 [3] [nM] | inhibition at 0.1 µM [5] [%] | inhibition at 0.01 µM [5] [%] | inhibition at 0.01 µM [1] [%] | inhibition at 0.01 µM [4] [%] | IC50 ([4]; kinase activity assay, Table 3) [nM]
6 | CN1CCOCCOc2cc(Nc3nc(-c4cn(C)c5ccccc45)c4cn[nH]c4n3)ccc2OCC1 [Example 24, 7-methyl-N-(4-(1-methyl-1H-indol-3-yl)-1H-pyrazolo[3,4-d]pyrimidin-6-yl)-2,3,6,7,8,9-hexahydro-5H-benzo[b][1,4,7]trioxa[10]azacyclododecan-13-amine] | 40 to 79 | 40 to 79 | 25 to 39 |  |  |  |  |  |  |  |  |  | 
7 | CC(C)S(=O)(=O)c1ccccc1Nc1nc(Nc2ccc3c(c2)OCCN(C)CCOCCO3)nc2[nH]ncc12 [Example 12, N^4-(2-(isopropylsulfonyl)phenyl)-N^6-(7-methyl-2,3,6,7,8,9-hexahydro-5H-benzo[b][1,4, 7]trioxa[10]azacyclododecan-12-yl)-1H-pyrazolo[3,4-d]pyrimidin-4,6-diamine] | 40 to 79 | > 80 | > 80 | 40 to 79 | < 50 | 25 to 39 | 25 to 39 | < 50 |  |  |  |  | 
8 | CN1CCOCCOc2cc(Nc3nc(-c4cn(C)c5ccccc45)c4cc[nH]c4n3)ccc2OCC1 [Example 23, 7-methyl-N-(4-(1-methyl-1H-indol-3-yl)-7H-pyrrolo[2,3-d]pyrimidin-2-yl)-2,3,6,7,8,9-hexahydro-5H-benzo[b][1,4,7]trioxa[10]azacyclododecan-13-amine] | > 80 | 40 to 79 | 40 to 79 |  |  | 40 to 79 |  |  | 25 to 39 |  |  |  | 
9 | CN1CCOCCOc2cc(Nc3nc(Nc4cccc(S(=O)(=O)NC(C)(C)C)c4)c4cc[nH]c4n3)ccc2OCC1 [Example 20, N-(tert-butyl)-3-((2-((7-methyl-2,3,6,7,8,9-hexahydro-5H-benzo[b][1,4,7]trioxa[10]azacyclododecan-13-yl)amino)-7H-pyrrolo[2,3-d]pyrimidin-4-yl)amino)benzenesulfonamide] | > 80 | 40 to 79 | 40 to 79 |  |  | 40 to 79 |  |  | 25 to 39 |  |  |  | 
10 | CC(C)S(=O)(=O)c1ccccc1Nc1nc(Nc2ccc3c(c2)OCCOCCN(C)CCO3)nc2[nH]ncc12 [Example 11, N^4-(2-(isopropylsulfonyl)phenyl)-N^6-(7-methyl-2,3,6,7,8,9-hexahydro-5H-benzo[b][1,4, 7]trioxa[10]azacyclododecan-13-yl)-1H-pyrazolo[3,4-d]pyrimidin-4,6-diamine] | > 80 | 40 to 79 | 40 to 79 |  |  | > 80 |  |  | > 80 | 25 to 39 | 40 to 79 | 40 to 79 | 
11 | CN1CCOc2ccc(Nc3nc(-c4ccc(C(=O)NCC#N)cc4)c4cc[nH]c4n3)cc2OCC1 [Example 2] |  | 25 to 39 |  |  |  | > 80 |  |  | > 80 |  |  |  | < 50
12 | CN1CCOCCOc2cc(Nc3nc(Nc4ccccc4P(C)(C)=O)c4cn[nH]c4n3)ccc2OCC1 [Example 33, dimethyl(2-((6-((7-methyl-2,3,6,7,8,9-hexahydro-5H-benzo[b][1,4,7]trioxa[10]azacyclododecan-13-yl)amino)-1H-pyrazolo[3,4-d]pyrimidin-4-yl)amino)phenyl)phosphine oxide] | 40 to 79 | 40 to 79 | > 80 |  |  | > 80 | > 80 | < 50 |  |  |  | 25 to 39 | 
13 | CC(C)S(=O)(=O)c1ccccc1Nc1nc(Nc2ccc3c(c2)OCCN(C)CCO3)nc2[nH]ncc12 [Example 36, N^4-(2-(isopropylsulfonyl)phenyl)-N^6-(4-methyl-3,4,5,6-tetrahydro-2H-benzo[b] [1,4,7]dioxazolin-9-yl)-1H-pyrazolo[3,4-d]pyrimidin-4,6-diamine] | 40 to 79 | 40 to 79 | > 80 |  |  | 25 to 39 |  | < 50 |  |  |  |  | 
